Laboratory results reported in patent publication US5043450A, “8-alkoxyquinolonecarboxylic acid and salts thereof” (priority 1986, dated 1991).
In brackets after ≈: the same amount, converted by molar mass. Like-named read-outs stand apart in the source and are kept apart here.

What was measured:
Assay type in all cases: cell-based
[1] = system: Bacilus subtilis PCI 219; assay: Antibacterial spectra, MIC; details: Bacillus subtilis, PCI219
[2] = system: Staphylococcus aureus 209 P; assay: Antibacterial spectra, MIC
[3] = system: S. aureus IID 670 (Terajima); assay: Antibacterial spectra, MIC; details: Staphylococcus aureus, IID670
[4] = system: S. aureus Smith; assay: Antibacterial spectra, MIC; details: Staphylococcus aureus
[5] = system: E. coli ML 4707; assay: Antibacterial spectra, MIC; details: Escherichia coli, ML4707; 10^6 cells/ml; Gram -
Description: (§1) The antibacterial test was carried out according to the method designated by Japan Society of Chemotherapy.

[6] = system: E. faecalis IID 682; assay: Antibacterial spectra, MIC; details: Enterococcus faecalis, IID682; 10^6 cells/ml; Gram +
Description: as §1

[7] = system: Proteus vulgaris IFO 3167; assay: Antibacterial spectra, MIC; details: IFO3167, 10^6 cells/ml, Gram -
Description: as §1

[8] = system: Shigella sonnei IID 969; assay: Antibacterial spectra, MIC; details: IID969, 10^6 cells/ml, Gram -
Description: as §1

[9] = system: Streptococcus pyogenes (S-8); assay: Antibacterial spectra, MIC; details: 10^6 cells/ml, Gram +
Description: as §1

[10] = system: S. pyogenes IID 692; assay: Antibacterial spectra, MIC; details: Streptococcus pyogenes, IID692
[11] = system: S. pneumoniae IID 552; assay: Antibacterial spectra, MIC; details: Streptococcus pneumoniae, IID552
[12] = system: Escherichia coli NIHJ JC-2; assay: Antibacterial spectra, MIC; details: NIHJJC2
[13] = system: E. coli ATCC 10536; assay: Antibacterial spectra, MIC; details: Escherichia coli, ATCC10536
[14] = system: P. mirabilis IID 994; assay: Antibacterial spectra, MIC; details: Proteus mirabilis, IID994
[15] = system: Morganella morganii IID 602; assay: Antibacterial spectra, MIC; details: IID602
[16] = system: Klebsiella pneumoniae KY(GN)6445; assay: Antibacterial spectra, MIC
[17] = system: K. pneumoniae 1-220S; assay: Antibacterial spectra, MIC; details: Klebsiella pneumoniae, 1220S
[18] = system: Enterobacter cloacae IID 977; assay: Antibacterial spectra, MIC; details: IID977
[19] = system: Citrobacter freundii IID 976; assay: Antibacterial spectra, MIC; details: IID976
[20] = system: Serratia marcescens IID 618; assay: Antibacterial spectra, MIC; details: IID618
[21] = system: Salmonella enteritidis IID 604; assay: Antibacterial spectra, MIC; details: Salmonella enterica
[22] = system: Pseudomonas aeruginosa V-1; assay: Antibacterial spectra, MIC; details: V1
[23] = system: P. aeruginosa IFO 12689; assay: Antibacterial spectra, MIC; details: Pseudomonas aeruginosa, IFO12689; 10^6 cells/ml; Gram -; read-out: MIC
[24] = system: P. aeruginosa IID 1210; assay: Antibacterial spectra, MIC; details: Pseudomonas aeruginosa, IID1210; 10^6 cells/ml; Gram -; read-out: MIC
[25] = system: P. cepacia GIFU 518; assay: Antibacterial spectra, MIC; details: Burkholderia cepacia, GIFU518; 10^6 cells/ml; Gram -; read-out: MIC
[26] = system: P. maltophilia GIFU 2491; assay: Antibacterial spectra, MIC; details: Stenotrophomonas maltophilia, GIFU2491
[27] = system: Yersinia enterocolitica IID 981; assay: Antibacterial spectra, MIC; details: IID981
[28] = system: Acinetobacter anitratus IID 876; assay: Antibacterial spectra, MIC; details: Acinetobacter calcoaceticus, IID876
[29] = system: Alcaligenes faecalis 0114002; assay: Antibacterial spectra, MIC
[30] = system: Bacteroides fragilis GM 7000; assay: Antibacterial spectra, MIC
[31] = system: B. fragilis 0558; assay: Antibacterial spectra, MIC; details: Bacteroides fragilis
[32] = system: B. fragilis 25285; assay: Antibacterial spectra, MIC; details: Bacteroides fragilis
[33] = system: B. distasonis 8503; assay: Antibacterial spectra, MIC; details: Parabacteroides distasonis, 10^6 cells/ml, Gram -, read-out: MIC
[34] = system: B. thetaiotaomicron (0661); assay: Antibacterial spectra, MIC; details: Bacteroides thetaiotaomicron; 10^6 cells/ml; Gram -; read-out: MIC
[35] = system: B. vulgatus KYA 29327; assay: Antibacterial spectra, MIC; details: Phocaeicola vulgatus, KYA29327
[36] = system: Fusobacterium mortiferum 4249; assay: Antibacterial spectra, MIC
[37] = system: F. necrophorum S-45; assay: Antibacterial spectra, MIC; details: Fusobacterium necrophorum, S45; 10^6 cells/ml; Gram -; read-out: MIC
[38] = system: F. varium KYA 8501; assay: Antibacterial spectra, MIC; details: Fusobacterium varium, KYA8501; 10^6 cells/ml; Gram -; read-out: MIC
[39] = system: Eubacterium lentum GAI 5242; assay: Antibacterial spectra, MIC; details: Eggerthella lenta, GAI5242
[40] = system: Propionibacterium acens 11828; assay: Antibacterial spectra, MIC; details: 10^6 cells/ml, Gram +, read-out: MIC
[41] = system: Peptococcus magnus KY 017; assay: Antibacterial spectra, MIC; details: Finegoldia magna, KY017
[42] = system: C. perfringens KYA 13123; assay: microbe, parasite or virus in culture; details: Clostridium perfringens, KYA13123
[43] = system: C. ramosum; assay: Antibacterial spectra, MIC; details: Thomasclavelia ramosa; 10^6 cells/ml; Gram +; read-out: MIC
[44] = system: Peptostreptococcus anaerobius KYA 27337; assay: Antibacterial spectra, MIC
[45] = system: Pst. micros UPI 5464-1; assay: Antibacterial spectra, MIC; details: Parvimonas micra, UPI54641
[46] = system: Veillonella parvula KYA 10790; assay: Antibacterial spectra, MIC; details: KYA10790
[47] = 10^6 cells/ml, Gram -, read-out: MIC

## COc1c(N2CCNCC2)c(F)c(N)c2c(=O)c(C(=O)O)cn(C3CC3)c12 [Exp. 10, 5-amino-1-cyclopropyl-6-fluoro-1,4-dihydro-8-methoxy-4-oxo-7-(1-piperazinyl)-3-quinolinecarboxylic acid]
[1]
  MIC: 0.025 µg/mL (≈ 0.0664 µM)
[2]
  MIC: 0.05 µg/mL (≈ 0.133 µM)
[3]
  MIC: 0.1 µg/mL (≈ 0.266 µM)
[4]
  MIC: 0.1 µg/mL (≈ 0.266 µM)
[5]
  MIC: 0.05 µg/mL (≈ 0.133 µM)
[6]
  MIC: 0.39 µg/mL
[7]
  MIC: 0.1 µg/mL (≈ 0.266 µM)
[8]
  MIC: 0.025 µg/mL (≈ 0.0664 µM)
[9]
  MIC: 0.39 µg/mL
[10]
  MIC: > 0.78 µg/mL
[11]
  MIC: > 0.78 µg/mL
[12]
  MIC: 0.025 µg/mL (≈ 0.0664 µM)
[13]
  MIC: 0.05 µg/mL (≈ 0.133 µM)
[14]
  MIC: 0.2 µg/mL (≈ 0.531 µM)
[15]
  MIC: 0.2 µg/mL (≈ 0.531 µM)
[16]
  MIC: 0.05 µg/mL (≈ 0.133 µM)
[17]
  MIC: 0.2 µg/mL (≈ 0.531 µM)
[18]
  MIC: 0.2 µg/mL (≈ 0.531 µM)
[19]
  MIC: 0.05 µg/mL (≈ 0.133 µM)
[20]
  MIC: 0.2 µg/mL (≈ 0.531 µM)
[21]
  MIC: 0.2 µg/mL (≈ 0.531 µM)
[22]
  MIC: 0.39 µg/mL (≈ 1.04 µM)
[23]
  MIC: 1.56 µg/mL (≈ 4.14 µM)
[24]
  MIC: 1.56 µg/mL (≈ 4.14 µM)
[25]
  MIC: 1.56 µg/mL (≈ 4.14 µM)
[26]
  MIC: 0.2 µg/mL (≈ 0.531 µM)
[27]
  MIC: 0.2 µg/mL (≈ 0.531 µM)
[28]
  MIC: 0.1 µg/mL (≈ 0.266 µM)
[29]
  MIC: 0.78 µg/mL (≈ 2.07 µM)
[30]; GM7000
  MIC: 3.13 µg/mL (≈ 8.32 µM)
[31]
  MIC: 3.13 µg/mL (≈ 8.32 µM)
[32]
  MIC: 3.13 µg/mL (≈ 8.32 µM)
[33]
  MIC: 6.25 µg/mL (≈ 16.6 µM)
[34]
  MIC: 6.25 µg/mL (≈ 16.6 µM)
[35]
  MIC: 0.39 µg/mL (≈ 1.04 µM)
[36]; [47]
  MIC: 1.56 µg/mL (≈ 4.14 µM)
[37]
  MIC: 1.56 µg/mL (≈ 4.14 µM)
[38]
  MIC: 50 µg/mL (≈ 133 µM)
[39]
  MIC: 0.78 µg/mL (≈ 2.07 µM)
[40]
  MIC: 12.5 µg/mL (≈ 33.2 µM)
[41]; 10^6 cells/ml, Gram +, read-out: MIC
  MIC: 1.56 µg/mL (≈ 4.14 µM)
[42]
  MIC: 3.13 µg/mL (≈ 8.32 µM)
[43]
  MIC: 1.56 µg/mL (≈ 4.14 µM)
[44]; KYA27337, 10^6 cells/ml, Gram +, read-out: MIC
  MIC: 1.56 µg/mL (≈ 4.14 µM)
[45]
  MIC: 0.39 µg/mL (≈ 1.04 µM)
[46]
  MIC: 0.39 µg/mL (≈ 1.04 µM)

## COc1c(N2CCC(N)C2)c(F)c(N)c2c(=O)c(C(=O)O)cn(C3CC3)c12 (centres unmarked) [Exp. 11, 5-amino-7-(3-amino-1-pyrrolidinyl)-1-cyclopropyl-6-fluoro-1,4-dihydro-8-methoxy-4-oxo-3-quinolinecarboxylic acid]
[1]
  MIC: 0.0125 µg/mL (≈ 0.0332 µM)
[2]
  MIC: 0.025 µg/mL (≈ 0.0664 µM)
[3]
  MIC: 0.05 µg/mL (≈ 0.133 µM)
[4]
  MIC: 0.025 µg/mL (≈ 0.0664 µM)
[5]
  MIC: 0.025 µg/mL (≈ 0.0664 µM)
[6]
  MIC: 0.2 µg/mL
[7]
  MIC: 0.2 µg/mL (≈ 0.531 µM)
[8]
  MIC: 0.025 µg/mL (≈ 0.0664 µM)
[9]
  MIC: 0.2 µg/mL
[10]
  MIC: 0.39 µg/mL (≈ 1.04 µM)
[11]
  MIC: 0.2 µg/mL (≈ 0.531 µM)
[12]
  MIC: 0.025 µg/mL (≈ 0.0664 µM)
[13]
  MIC: 0.025 µg/mL (≈ 0.0664 µM)
[14]
  MIC: 0.1 µg/mL (≈ 0.266 µM)
[15]
  MIC: 0.2 µg/mL (≈ 0.531 µM)
[16]
  MIC: 0.05 µg/mL (≈ 0.133 µM)
[17]
  MIC: 0.2 µg/mL (≈ 0.531 µM)
[18]
  MIC: 0.05 µg/mL (≈ 0.133 µM)
[19]
  MIC: 0.05 µg/mL (≈ 0.133 µM)
[20]
  MIC: 0.2 µg/mL (≈ 0.531 µM)
[21]
  MIC: 0.1 µg/mL (≈ 0.266 µM)
[22]
  MIC: 0.78 µg/mL (≈ 2.07 µM)
[23]
  MIC: 1.56 µg/mL (≈ 4.14 µM)
[24]
  MIC: 1.56 µg/mL (≈ 4.14 µM)
[25]
  MIC: 1.56 µg/mL (≈ 4.14 µM)
[26]
  MIC: 0.2 µg/mL (≈ 0.531 µM)
[27]
  MIC: 0.1 µg/mL (≈ 0.266 µM)
[28]
  MIC: 0.05 µg/mL (≈ 0.133 µM)
[29]
  MIC: 0.78 µg/mL (≈ 2.07 µM)
[30]; GM7000, 10^6 cells/ml, Gram -, read-out: MIC
  MIC: 1.56 µg/mL (≈ 4.14 µM)
[31]; [47]
  MIC: 1.56 µg/mL (≈ 4.14 µM)
[32]; [47]
  MIC: 1.56 µg/mL (≈ 4.14 µM)
[33]
  MIC: 12.5 µg/mL (≈ 33.2 µM)
[34]
  MIC: 1.56 µg/mL (≈ 4.14 µM)
[35]
  MIC: 0.78 µg/mL (≈ 2.07 µM)
[36]
  MIC: 3.13 µg/mL (≈ 8.32 µM)
[37]
  MIC: 1.56 µg/mL (≈ 4.14 µM)
[38]
  MIC: 25 µg/mL (≈ 66.4 µM)
[39]
  MIC: 0.39 µg/mL (≈ 1.04 µM)
[40]
  MIC: 6.25 µg/mL (≈ 16.6 µM)
[41]
  MIC: 0.78 µg/mL (≈ 2.07 µM)
[42]
  MIC: 0.78 µg/mL (≈ 2.07 µM)
[43]
  MIC: 1.56 µg/mL (≈ 4.14 µM)
[44]; KYA27337
  MIC: 0.78 µg/mL (≈ 2.07 µM)
[45]
  MIC: 0.78 µg/mL (≈ 2.07 µM)
[46]
  MIC: 0.78 µg/mL (≈ 2.07 µM)
